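Test compounds were applied to cells in 96-well plates for 48 hours at 5 doses. At the TGI there is no net growth.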
Key:
Test in all cases: inhibition of tumour cell growth, NCI panel, 48 h
SR leukemia = test system: SR leukemia
MDA-N = test system: MDA-N
HL-60(TB) leukemia = test system: HL-60(TB) leukemia
HOP-62 NSCLC = test system: HOP-62 NSCLC
MALME-3M melanoma = test system: MALME-3M melanoma
IGROV1 ovarian = test system: IGROV1 ovarian
A498 renal = test system: A498 renal
HOP-92 NSCLC = test system: HOP-92 NSCLC
A549 NSCLC = test system: A549 NSCLC
DU-145 prostate = test system: DU-145 prostate
MDA-MB-435 = test system: MDA-MB-435
BT-549 breast = test system: BT-549 breast
SK-OV-3 ovarian = test system: SK-OV-3 ovarian
COLO 205 colon = test system: COLO 205 colon
SK-MEL-28 melanoma = test system: SK-MEL-28 melanoma
NCI-H522 lung = test system: NCI-H522 lung
CCRF-CEM leukemia = test system: CCRF-CEM leukemia
TK-10 renal = test system: TK-10 renal
SF-268 CNS = test system: SF-268 CNS
HT29 colon = test system: HT29 colon
MOLT-4 leukemia = test system: MOLT-4 leukemia
SN12C renal = test system: SN12C renal
OVCAR-3 ovarian = test system: OVCAR-3 ovarian
HCT-116 colon = test system: HCT-116 colon
UO-31 renal = test system: UO-31 renal
NCI-H460 lung = test system: NCI-H460 lung
OVCAR-5 ovarian = test system: OVCAR-5 ovarian
UACC-257 melanoma = test system: UACC-257 melanoma
K-562 leukemia = test system: K-562 leukemia
M14 melanoma = test system: M14 melanoma
SNB-19 CNS = test system: SNB-19 CNS
SF-295 CNS = test system: SF-295 CNS
UACC-62 melanoma = test system: UACC-62 melanoma
OVCAR-4 ovarian = test system: OVCAR-4 ovarian
OVCAR-8 ovarian = test system: OVCAR-8 ovarian
EKVX NSCLC = test system: EKVX NSCLC
NCI-H23 lung = test system: NCI-H23 lung
NCI-H226 lung = test system: NCI-H226 lung
786-0 renal = test system: 786-0 renal
PC-3 prostate = test system: PC-3 prostate
MCF7 breast = test system: MCF7 breast
RXF 393 renal = test system: RXF 393 renal
HCC-2998 colon = test system: HCC-2998 colon
SK-MEL-2 melanoma = test system: SK-MEL-2 melanoma
U251 CNS = test system: U251 CNS
HS 578T breast = test system: HS 578T breast
CAKI-1 renal = test system: CAKI-1 renal
MDA-MB-231 breast = test system: MDA-MB-231 breast
KM12 colon = test system: KM12 colon
ACHN renal = test system: ACHN renal
HCT-15 colon = test system: HCT-15 colon
SF-539 CNS = test system: SF-539 CNS
RPMI-8226 leukemia = test system: RPMI-8226 leukemia
SK-MEL-5 melanoma = test system: SK-MEL-5 melanoma
T-47D breast = test system: T-47D breast
NCI/ADR-RES ovarian = test system: NCI/ADR-RES ovarian
SNB-75 CNS = test system: SNB-75 CNS
SW-620 colon = test system: SW-620 colon
LOX IMVI melanoma = test system: LOX IMVI melanoma

`CC1C(OS(=O)(=O)c2ccc3[nH]c(=S)sc3c2)CC2C3(C)CCC2(C(C)C(=O)O)C(O)C13` (centres undefined) was tested, and the TGI (SR leukemia) was 64.8 µM, the TGI (MDA-N) was 69.8 µM and the TGI (HL-60(TB) leukemia) was 58 µM. The TGI (HOP-62 NSCLC) was 66.5 µM, the TGI (MALME-3M melanoma) was 83.8 µM and the TGI (IGROV1 ovarian) was 35.8 µM. It also gave a TGI (A498 renal) greater than 100 µM, a TGI (HOP-92 NSCLC) greater than 100 µM and a TGI (A549 NSCLC) greater than 100 µM. It also gave a TGI (DU-145 prostate) of 40.4 µM, a TGI (MDA-MB-435) of 47.8 µM and a TGI (BT-549 breast) of 66 µM. It also gave a TGI (SK-OV-3 ovarian) greater than 100 µM, a TGI (COLO 205 colon) of 38 µM and a TGI (SK-MEL-28 melanoma) greater than 100 µM. For the same molecule, the TGI (NCI-H522 lung) was 17.2 µM, the TGI (CCRF-CEM leukemia) was 65.5 µM and the TGI (TK-10 renal) was greater than 100 µM. For the same molecule, the TGI (SF-268 CNS) was greater than 100 µM, the TGI (HT29 colon) was 35.4 µM and the TGI (MOLT-4 leukemia) was greater than 100 µM. For the same molecule, the TGI (SN12C renal) was greater than 100 µM, the TGI (OVCAR-3 ovarian) was 42.5 µM and the TGI (HCT-116 colon) was 27.3 µM. For the same molecule, the TGI (UO-31 renal) was 39.8 µM, the TGI (NCI-H460 lung) was greater than 100 µM and the TGI (OVCAR-5 ovarian) was 93.3 µM. For the same molecule, the TGI (UACC-257 melanoma) was greater than 100 µM, the TGI (K-562 leukemia) was greater than 100 µM and the TGI (M14 melanoma) was 84.1 µM. For the same molecule, the TGI (SNB-19 CNS) was greater than 100 µM, the TGI (SF-295 CNS) was 95.1 µM and the TGI (UACC-62 melanoma) was 63.3 µM. For the same molecule, the TGI (OVCAR-4 ovarian) was 94.2 µM, the TGI (OVCAR-8 ovarian) was 54.6 µM and the TGI (EKVX NSCLC) was greater than 100 µM. For the same molecule, the TGI (NCI-H23 lung) was 38.3 µM, the TGI (NCI-H226 lung) was 60.4 µM and the TGI (786-0 renal) was 56.8 µM. It also gave a TGI (PC-3 prostate) greater than 100 µM, a TGI (MCF7 breast) greater than 100 µM and a TGI (RXF 393 renal) of 61.2 µM. It also gave a TGI (HCC-2998 colon) greater than 100 µM, a TGI (SK-MEL-2 melanoma) of 81.7 µM and a TGI (U251 CNS) of 38.6 µM. It also gave a TGI (HS 578T breast) greater than 100 µM, a TGI (CAKI-1 renal) of 64.3 µM and a TGI (MDA-MB-231 breast) greater than 100 µM. The TGI (KM12 colon) was 52.4 µM, the TGI (ACHN renal) was 31.8 µM and the TGI (HCT-15 colon) was 27.1 µM. For the same molecule, the TGI (SF-539 CNS) was 46 µM, the TGI (RPMI-8226 leukemia) was 40.8 µM and the TGI (SK-MEL-5 melanoma) was 34.5 µM. It also gave a TGI (T-47D breast) of 48.3 µM and a TGI (NCI/ADR-RES ovarian) greater than 100 µM.

`O=C1/C(=C/c2ccc(Br)s2)NC(=S)N1CN1CCCCC1` gave a TGI (SR leukemia) of 47.1 µM, a TGI (MDA-N) greater than 100 µM and a TGI (HL-60(TB) leukemia) of 50 µM. It also gave a TGI (HOP-62 NSCLC) greater than 100 µM, a TGI (MALME-3M melanoma) greater than 100 µM and a TGI (IGROV1 ovarian) greater than 100 µM. It also gave a TGI (A498 renal) of 91.7 µM, a TGI (DU-145 prostate) greater than 100 µM and a TGI (MDA-MB-435) greater than 100 µM. For the same molecule, the TGI (BT-549 breast) was 96.8 µM, the TGI (COLO 205 colon) was 37.2 µM and the TGI (SK-MEL-28 melanoma) was greater than 100 µM. For the same molecule, the TGI (NCI-H522 lung) was 83.1 µM, the TGI (TK-10 renal) was greater than 100 µM and the TGI (SF-268 CNS) was greater than 100 µM. For the same molecule, the TGI (HT29 colon) was greater than 100 µM, the TGI (SNB-75 CNS) was greater than 100 µM and the TGI (MOLT-4 leukemia) was 66.8 µM. The TGI (SN12C renal) was greater than 100 µM, the TGI (OVCAR-3 ovarian) was 59.6 µM and the TGI (HCT-116 colon) was greater than 100 µM. It also gave a TGI (UO-31 renal) of 76.3 µM, a TGI (NCI-H460 lung) greater than 100 µM and a TGI (OVCAR-5 ovarian) greater than 100 µM. The TGI (UACC-257 melanoma) was greater than 100 µM, the TGI (K-562 leukemia) was 59.8 µM and the TGI (SNB-19 CNS) was greater than 100 µM. For the same molecule, the TGI (SF-295 CNS) was 91.2 µM, the TGI (UACC-62 melanoma) was greater than 100 µM and the TGI (OVCAR-4 ovarian) was greater than 100 µM. The TGI (SW-620 colon) was greater than 100 µM, the TGI (OVCAR-8 ovarian) was greater than 100 µM and the TGI (EKVX NSCLC) was greater than 100 µM. The TGI (NCI-H23 lung) was greater than 100 µM, the TGI (NCI-H226 lung) was greater than 100 µM and the TGI (LOX IMVI melanoma) was 52 µM. For the same molecule, the TGI (786-0 renal) was greater than 100 µM, the TGI (PC-3 prostate) was 88.3 µM and the TGI (MCF7 breast) was 57.8 µM. For the same molecule, the TGI (RXF 393 renal) was 60.7 µM, the TGI (HCC-2998 colon) was greater than 100 µM and the TGI (SK-MEL-2 melanoma) was 37.1 µM. It also gave a TGI (U251 CNS) greater than 100 µM, a TGI (HS 578T breast) greater than 100 µM and a TGI (CAKI-1 renal) of 59.2 µM. For the same molecule, the TGI (MDA-MB-231 breast) was greater than 100 µM, the TGI (KM12 colon) was greater than 100 µM and the TGI (ACHN renal) was greater than 100 µM. The TGI (HCT-15 colon) was greater than 100 µM, the TGI (RPMI-8226 leukemia) was 50.8 µM and the TGI (SK-MEL-5 melanoma) was 23.8 µM. For the same molecule, the TGI (T-47D breast) was greater than 100 µM and the TGI (NCI/ADR-RES ovarian) was 98.2 µM.
